The values that follow are results of earlier work, collected in patent US5204349A, “Amide-substituted derivatives of spiroindanylcamphorsulfonyl oxytocin antagonists” (priority 1991, dated 1993).

Read-outs that look alike come from different tables or passages of the source.

For data set [1] the following is noted: compared with ritodrine.
Where [2] appears, read: tocolytic use, mother and infant.

As to `CCO` [Ethanol], in data set [1], the “effectiveness in preventing premature labor” value is on record as “as effective as ritodrine in preventing premature labor” and the “reduction in the incidence of fetal respiratory distress” value was “does not produce a corresponding reduction in the incidence of fetal respiratory distress that administration of ritodrine does”.

As for `O=S(=O)([O-])[O-].[Mg+2]` [Magnesium sulfate], for the setting “plasma concentrations above 4 to 8 mg/dL”, the “adverse effects at plasma concentrations above the therapeutic range” value was “can cause inhibition of cardiac conduction and neuromuscular transmission, respiratory depression and cardiac arrest”.

As for `CC(NCCc1ccc(O)cc1)C(O)c1ccc(O)cc1` (stereo not drawn) [Ritodrine], the side effects entry under setting [2] is “causes a number of cardiovascular and metabolic side effects in the mother, including tachycardia, increased renin secretion, hyperglycemia (and reactive hypoglycemia in the infant)”.

Regarding `CC(C)(C)NCC(O)c1ccc(O)c(CO)c1` (stereo not drawn) [albuterol], the side effects result (in vivo) was “side effects similar to those of ritodrine”.

Regarding `CC(C)(C)NCC(O)c1cc(O)cc(O)c1` (stereo not drawn) [terbutaline], the side effects result under setting [2] was “side effects similar to those of ritodrine”.
